From patent publication US10966911B2, “Melanin decomposition inhibitor” (KAO CORPORATION, priority 2016, dated 2021)

What was measured:
LC3-II = experiment: Autophagy activity of epidermal keratinocytes (LC3-II accumulation with chloroquine diphosphate, Western blotting); assay type: cell-based, human; details: chloroquine diphosphate 10 μM, 24 hours, FIG. 18
Experimental: Normal human neonatal foreskin-derived epidermal keratinocytes (Human Epidermal Keratinocytes, neonatal (HEKn) lightly; keratinocytes) were purchased from Thermo Fisher Scientific. […] The keratinocytes were cultured in a grow medium (Epilife) epidermal keratinocytes (Thermo Fisher Scientific) supplemented with a growth additive (Humedia-KG) (manufactured by Kurabo Industries Ltd.) at 37° C. in 5 vol % CO2 atmospheric conditions.
Keratinocytes were seeded in a 6-well plate at a density of 1.5×10^5 cells/well (2 mL/well). The following day, proguanil was added so as to obtain a final concentration of 0.3, 1, 3, 10 or 30 μM. Culture was performed at 37° C. in 5 vol % CO2 atmospheric conditions. As a control, the same amount of DMSO was added. […] The following day, Chloroquine diphosphate attached to LC3B Antibody Kit for Autophagy (Thermo Fisher Scientific) was added so as to obtain a final concentration of 10 μM. Culture was performed at 37° C. in 5 vol % CO2 atmospheric conditions for 24 hours. After completion of the culture, SDS-PAGE and western blotting were performed in accordance with the method as mentioned above. As a primary antibody, anti-LC3B (1:1000) attached to the kit mentioned above was used. […] Expression of β-actin as the internal standard was evaluated by using monoclonal antibody specific for β-actin (Sigma-Aldrich, 1:5000).

AMPK = details: Non-Patent Literature 2; cited from earlier work
human skin tissue [1] = experiment: Fontana-Masson staining of cultured human skin tissue (melanin deposition); assay type: cell-based
Experimental: (1) A normal human skin tissue obtained at the time of a surgical operation was purchased from a Skin Bank of the United States, National Disease Research Interchange (NDRI). The human skin tissue, from which subcutaneous fat was previously removed, was cut into pieces having a size of about 1 cm×about 1 cm by knife and cultured by using a 6-well plate at 37° C. under a 5% CO2 atmosphere. Advanced-DMEM medium containing 10% (v/v) Fetal Bovine Serum (FBS) (Life Technologies, respectively) was used for culture. (3) Next, the skin tissue cultured was subjected to Fontana-Masson staining to observe deposition of melanin. In the staining, Fontana-Masson Stain Kit manufactured by American […] Scientific, Inc. was used.

human skin tissue [2] = experiment: Skin color darkening in cultured human skin tissue (appearance observed and photographed); assay type: cell-based
Experimental: (§1) (1) A normal human skin tissue obtained at the time of a surgical operation was purchased from a Skin Bank of the United States, National Disease Research Interchange (NDRI). The human skin tissue, from which subcutaneous fat was previously removed, was cut into pieces having a size of about 1 cm×about 1 cm by knife and cultured by using a 6-well plate at 37° C. under a 5% CO2 atmosphere. Advanced-DMEM medium containing 10% (v/v) Fetal Bovine Serum (FBS) (Life Technologies, respectively) was used for culture.
(2) The human skin tissue prepared in accordance with the method described in the above (1) was allowed to stand still in the 6-well plate. Then, phenformin was added in the medium so as to have a final concentration of 300 μM and tissue culture was initiated. The medium replacement was performed every 2 to 3 days. Six days or eight days later, the appearance of the skin tissue was observed and photographed.
A human skin tissue prepared in accordance with the method of Example 1 (1) was allowed to stand still in a 6-well plate. Then, phenformin was added in a medium at a final concentration of 100, 200 or 300 μM and tissue culture was initiated. Four days later, the appearance of the skin tissue was observed and photographed.
Skin tissues prepared in accordance with the method of Example 1 (1) were allowed to stand still in 6-well plates. […]

LC3-II and p62 proteins [3] = experiment: Autophagy markers LC3-II and p62 in epidermal cells (Western blotting); assay type: cell-based, human; details: berberine 10, 30 or 60 μM, 24 hours, FIG. 7
Experimental: As a part of elucidation of the skin color darkening action of berberine, the effect on autophagy in epidermal cells was examined. Berberine was added in a medium for the epidermal cells seeded in a 6-well plate at a final concentration of 10, 30 or 60 μM and the epidermal cells were cultured for 24 hours. Protein was extracted and subjected to Western-blotting analysis to determine the expression levels of LC3-II and p62 proteins serving as markers for autophagy.
As a part of elucidation of skin color darkening action of phenformin and berberine, an effect of phenformin and berberine on melanosome decomposition in, epidermal cells was examined. The epidermal cells were isolated from a foreskin tissue obtained from a Skin Bank of the United States, National Disease Research Interchange (NDRI) in accordance with a predetermined method, and cultured. Melanosomes were prepared from MNT-1 cell strain in accordance with a predetermined method (Murase et al. (2013), J Invest Dermatol, 133: 2416-2424). A predetermined amount of melanosomes was added to epidermal cells and the cells were cultured for 24 hours. Melanosome prepared from MNT-1 cell strain cultured in an area of 35 cm^2 was added per well of the 6-well plate. […]

Pmel17 = experiment: Melanosome decomposition in epidermal cells that incorporated MNT-1 melanosomes (Pmel17 Western blotting); assay type: cell-based, human; details: 24 hours, FIG. 8
Experimental: As a part of elucidation of skin color darkening action of phenformin and berberine, an effect of phenformin and berberine on melanosome decomposition in, epidermal cells was examined. The epidermal cells were isolated from a foreskin tissue obtained from a Skin Bank of the United States, National Disease Research Interchange (NDRI) in accordance with a predetermined method, and cultured. Melanosomes were prepared from MNT-1 cell strain in accordance with a predetermined method (Murase et al. (2013), J Invest Dermatol, 133: 2416-2424). A predetermined amount of melanosomes was added to epidermal cells and the cells were cultured for 24 hours. Melanosome prepared from MNT-1 cell strain cultured in an area of 35 cm^2 was added per well of the 6-well plate. After the cells were washed with PBS, the epidermal cells which had incorporated melanosome therein were added with phenformin at a final concentration of 100 or 200 μM, berberine at a final concentration of 10, 30 or 60 μM and a Goldenseal extract rich in berberine at a final concentration 0.2 or 0.5% (v/v), and the cells were cultured for a further 24 hours. Protein was extracted and subjected to Western-blotting analysis to determine the expression level of Pmel17, a major protein constituting melanosome.

LC3-II and p62 proteins [4] = experiment: Western blotting of autophagy markers LC3-II and p62 in cultured human skin tissue; assay type: cell-based; details: 4 days, phenformin at different concentrations, FIG. 3B
Experimental: as §1
Further, the skin tissue prepared in accordance with the method of Example 1 (1) was allowed to stand still in a 6-well plate and cultured in the absence or presence of phenformin at a different concentration for 4 days. Proteins were extracted from the skin tissues and subjected to Western-blotting analysis. In this manner, the expression levels of LC3-II and p62 proteins, which are localized in autophagosome membrane and finally decomposed by autophagy, were determined. A mouse anti-human LC3 antibody (Cosmo Bio) and rabbit anti-human p62 antibody (MBL International) were used as primary antibodies.

[5] = test system: AMPK (AMP-activated protein kinase); details: human embryonic kidney cells (HEK 293 T cells); Non-Patent Literature 1; cited from earlier work
LC3-II and p62 proteins [6] = experiment: Autophagy markers LC3-II and p62 in cultured human hair follicle (Western blotting); assay type: cell-based; details: phenformin 200 μM, FIG. 11
Experimental: A human hair follicle was surgically isolated from a normal human scalp tissue ([…]), which was obtained at the time of surgical operation, and given by a USA dermatologist. The isolated human hair follicle was cultured at 37° C. under a 5% CO2 atmosphere in William E medium supplemented with 20 μg/mL insulin (Sigma-Aldrich), 40 ng/mL hydrocortisone (Sigma-Aldrich), 2 mM L-glutamine (Life Technologies) and a 1% (v/v) penicillin/streptomycin solution (Life Technologies) (all were final concentrations). The isolated human hair follicle was allowed to stand still in a 24-well plate and phenformin was added at a final concentration of 200 μM in the medium. Tissue culture was initiated. Medium replacement was performed Day 1 and Day 3 after the initiation of culture. Follicular tissue at Day 5 after the initiation of culture was embedded in OCT compound (TissueTek) and frozen. These follicular tissues were subjected to Fontana-Masson staining and deposition of melanin was observed.
From the human hair follicle cultured in accordance with the method of Example 8, protein was extracted and subjected to Western-blotting analysis. In this manner, expression levels of autophagy markers, i.e., LC3-II and p62 proteins, were analyzed.

human hair follicle = experiment: Hair color darkening in cultured human hair follicle (Fontana-Masson staining); assay type: cell-based; details: phenformin 200 μM, Day 5, FIG. 10
Pmel17 protein = experiment: Western blotting of Pmel17 protein in cultured human skin tissue; assay type: cell-based; details: cultured 6 days with or without phenformin, FIG. 3A
Experimental: as §1
The skin tissue prepared in accordance with the method of Example 1 (1) was allowed to stand still in a 6-well plate and cultured in the presence or absence of phenformin for 6 days. Protein was extracted from the skin tissue and used for quantitative analysis of Pmel17 protein, which is a major protein constituting a melanosome, by Western-blotting. Using a mouse anti-human Pmel17 antibody (DAKO) as a primary antibody and a goat anti-mouse IgG antibody as a secondary antibody, signals were detected by using ECL prime reagent (GE Healthcare) and ODYSSEY Fc Imaging System (LICOR). Beta-actin protein as an internal standard was detected in the same manner.

## CCN(CC)CCCC(C)Nc1ccnc2cc(Cl)ccc12 (stereo not drawn) [Chloroquine diphosphate]
LC3-II
  accumulation of LC3-II: Accumulation of LC3-II was induced

## COc1ccc2cc3[n+](cc2c1OC)CCc1cc2c(cc1-3)OCO2 [berberine, Berberine]
AMPK
  AMPK activation action: has an AMPK activation action
Human skin tissue [1]; berberine 10 or 30 μM and 30 or 100 μM, FIGS. 5 and 6
  deposition of melanin on the epidermal layer (tissue staining): Deposition of melanin on the epidermal layer was confirmed
Human skin tissue [2]; berberine 10 or 30 μM (Caucasian) and 30 or 100 μM (African American), six or four days, FIGS. 5 and 6
  darkening of skin color: darkening of skin color was induced in a berberine dose-dependent manner
LC3-II and p62 proteins [3]
  expression level of LC3-II protein: LC3-II and p62 proteins are accumulated in a berberine dose-dependent manner
  expression level of p62 protein: LC3-II and p62 proteins are accumulated in a berberine dose-dependent manner
Pmel17; berberine 10, 30 or 60 μM
  expression level of Pmel17: accumulation of Pmel17 protein in a dose-dependent manner was observed

## N=C(N)NC(=N)NCCc1ccccc1 [phenformin, Phenformin]
Human skin tissue [1]; phenformin 300 μM, skin tissue, FIGS. 2A, 2B
  accumulation of melanin in the epidermis: significant accumulation of melanin in the epidermis was observed
Human skin tissue [1]; phenformin 100, 200 or 300 μM, 4 days, data not shown
  melanin deposition: melanin deposition, which is correlated with a change in skin color, was confirmed
Human skin tissue [2]; phenformin 100, 200 or 300 μM, 4 days, FIG. 4
  skin color darkening (dose dependent): Recognizable darkening was observed in a dose-dependent manner
LC3-II and p62 proteins [4]
  expression level of LC3-II protein: accumulation on both markers was observed
  expression level of p62 protein: accumulation on both markers was observed
[5]
  autophagy: activates autophagy through activation of AMPK
LC3-II and p62 proteins [6]
  expression level of LC3-II protein: Accumulation of LC3-II and p62 proteins by addition of phenformin was observed
  expression level of p62 protein: Accumulation of LC3-II and p62 proteins by addition of phenformin was observed
Pmel17; phenformin 100 or 200 μM
  expression level of Pmel17: accumulation of Pmel17 protein in a dose-dependent manner was observed
Human hair follicle
  hair color darkening: Apparent hair color darkening was induced
Pmel17 protein
  amount of Pmel17 protein: amount of Pmel17 protein is increased
